Experimental data published in ChEMBL document CHEMBL3885881, “DrugMatrix”.

Organism: Rattus norvegicus
Test: DrugMatrix - Regimen: Daily Repeat
Type: toxicity, organism-based, Sprague-Dawley
Design: regimen Daily Repeat, gender Male, age 6-8 weeks
Settings: in vivo, po, route oral GAVAGE, vehicle 100 % WATER; for ABSOLUTE BASOPHIL / ABSOLUTE EOSINOPHIL / ABSOLUTE LYMPHOCYTE / ABSOLUTE MONOCYTE / ABSOLUTE SEGMENTED NEUTROPHIL / BASOPHIL / EOSINOPHIL / ERYTHROCYTE COUNT / HEMATOCRIT / HEMOGLOBIN / LEUKOCYTE COUNT / LYMPHOCYTE / MEAN CORPUSCULAR HEMOGLOBIN / MEAN CORPUSCULAR HEMOGLOBIN CONCENTRATION / MEAN CORPUSCULAR VOLUME / MONOCYTE / NEUTROPHIL / NUCLEATED RED BLOOD CELLS / PLATELET COUNT: tissue Blood; for ALANINE AMINOTRANSFERASE / ALBUMIN / ALKALINE PHOSPHATASE / ASPARTATE AMINOTRANSFERASE / BLOOD UREA NITROGEN / CARBON DIOXIDE / CHLORIDE / CHOLESTEROL / CREATINE PHOSPHOKINASE / CREATININE / GLUCOSE / LACTATE DEHYDROGENASE / LIPASE / PHOSPHORUS / POTASSIUM / SODIUM / TOTAL BILIRUBIN / TOTAL PROTEIN / URIC ACID: tissue Plasma
[1] = 0 mg/kg, 72 h, dose level Control, time 3 day
[2] = 0 mg/kg, 120 h, dose level Control, time 5 day
[3] = 28 mg/kg, 72 h, dose level Low, time 3 day

CS(=O)(=O)c1ccc([C@@H](O)[C@@H](CO)NC(=O)C(Cl)Cl)cc1 [THIAMPHENICOL]
ABSOLUTE BASOPHIL [1]: 0 CELLS/uL
ABSOLUTE EOSINOPHIL [1]: 151.33 CELLS/uL
ABSOLUTE LYMPHOCYTE [1]: 10599.5 CELLS/uL
ABSOLUTE MONOCYTE [1]: 109.5 CELLS/uL
ABSOLUTE SEGMENTED NEUTROPHIL [1]: 1139.67 CELLS/uL
BASOPHIL [1]: 0%
EOSINOPHIL [1]: 0.83%
ERYTHROCYTE COUNT [1]: 5.54 x10E6/uL
HEMATOCRIT [1]: 35.35%
HEMOGLOBIN [1]: 13.22 G/DL
LEUKOCYTE COUNT [1]: 12 x10E3/uL
LYMPHOCYTE [1]: 89%
MEAN CORPUSCULAR HEMOGLOBIN [1]: 23.88 pg
MEAN CORPUSCULAR HEMOGLOBIN CONCENTRATION [1]: 37.4 G/DL
MEAN CORPUSCULAR VOLUME [1]: 63.85 fL
MONOCYTE [1]: 1%
NEUTROPHIL [1]: 9.17%
NUCLEATED RED BLOOD CELLS [1]: 0 /100WBC
PLATELET COUNT [1]: 1333.33 x10E3/uL
ALANINE AMINOTRANSFERASE [1]: 53.17 u/L
ALBUMIN [1]: 4.32 G/DL
ALKALINE PHOSPHATASE [1]: 404.33 u/L
ASPARTATE AMINOTRANSFERASE [1]: 83.17 u/L
BLOOD UREA NITROGEN [1]: 15.67 mg/dL
CARBON DIOXIDE [1]: 27.33 mmol/L
CHLORIDE [1]: 101.83 MEQ/L
CHOLESTEROL [1]: 68.67 mg/dL
CREATINE PHOSPHOKINASE [1]: 276.17 u/L
CREATININE [1]: 0.18 mg/dL
GLUCOSE [1]: 163.5 mg/dL
LACTATE DEHYDROGENASE [1]: 144.67 u/L
LIPASE [1]: 8.83 u/L
PHOSPHORUS [1]: 11.72 mg/dL
POTASSIUM [1]: 5.99 MEQ/L
SODIUM [1]: 143.57 MEQ/L
TOTAL BILIRUBIN [1]: 0.2 mg/dL
TOTAL PROTEIN [1]: 6.1 G/DL
URIC ACID [1]: 1.38 mg/dL
ABSOLUTE BASOPHIL [2]: 0 CELLS/uL
ABSOLUTE EOSINOPHIL [2]: 248.67 CELLS/uL
ABSOLUTE LYMPHOCYTE [2]: 12977.83 CELLS/uL
ABSOLUTE MONOCYTE [2]: 19.67 CELLS/uL
ABSOLUTE SEGMENTED NEUTROPHIL [2]: 1137.17 CELLS/uL
BASOPHIL [2]: 0%
EOSINOPHIL [2]: 1.67%
ERYTHROCYTE COUNT [2]: 5.82 x10E6/uL
HEMATOCRIT [2]: 36.35%
HEMOGLOBIN [2]: 13.58 G/DL
LEUKOCYTE COUNT [2]: 14.38 x10E3/uL
LYMPHOCYTE [2]: 90.5%
MEAN CORPUSCULAR HEMOGLOBIN [2]: 23.32 pg
MEAN CORPUSCULAR HEMOGLOBIN CONCENTRATION [2]: 37.42 G/DL
MEAN CORPUSCULAR VOLUME [2]: 62.42 fL
MONOCYTE [2]: 0.17%
NEUTROPHIL [2]: 7.67%
NUCLEATED RED BLOOD CELLS [2]: 0 /100WBC
PLATELET COUNT [2]: 1337.67 x10E3/uL
ALANINE AMINOTRANSFERASE [2]: 48.5 u/L
ALBUMIN [2]: 4.32 G/DL
ALKALINE PHOSPHATASE [2]: 354.33 u/L
ASPARTATE AMINOTRANSFERASE [2]: 80 u/L
BLOOD UREA NITROGEN [2]: 16 mg/dL
CARBON DIOXIDE [2]: 27.33 mmol/L
CHLORIDE [2]: 100.33 MEQ/L
CHOLESTEROL [2]: 68 mg/dL
CREATINE PHOSPHOKINASE [2]: 325.17 u/L
CREATININE [2]: 0.23 mg/dL
GLUCOSE [2]: 172 mg/dL
LACTATE DEHYDROGENASE [2]: 254.83 u/L
LIPASE [2]: 8.33 u/L
PHOSPHORUS [2]: 12.17 mg/dL
POTASSIUM [2]: 6.28 MEQ/L
SODIUM [2]: 143.57 MEQ/L
TOTAL BILIRUBIN [2]: 0.18 mg/dL
TOTAL PROTEIN [2]: 6.12 G/DL
URIC ACID [2]: 1.78 mg/dL
ABSOLUTE BASOPHIL [3]: 0 CELLS/uL
ABSOLUTE EOSINOPHIL [3]: 49.67 CELLS/uL
ABSOLUTE LYMPHOCYTE [3]: 5981.33 CELLS/uL
ABSOLUTE MONOCYTE [3]: 18.33 CELLS/uL
ABSOLUTE SEGMENTED NEUTROPHIL [3]: 584 CELLS/uL
BASOPHIL [3]: 0%
EOSINOPHIL [3]: 0.67%
ERYTHROCYTE COUNT [3]: 5.43 x10E6/uL
HEMATOCRIT [3]: 34.57%
HEMOGLOBIN [3]: 13.07 G/DL
LEUKOCYTE COUNT [3]: 6.63 x10E3/uL
LYMPHOCYTE [3]: 90%
MEAN CORPUSCULAR HEMOGLOBIN [3]: 24 pg
MEAN CORPUSCULAR HEMOGLOBIN CONCENTRATION [3]: 37.8 G/DL
MEAN CORPUSCULAR VOLUME [3]: 63.6 fL
MONOCYTE [3]: 0.33%
NEUTROPHIL [3]: 9%
NUCLEATED RED BLOOD CELLS [3]: 0 /100WBC
PLATELET COUNT [3]: 1197 x10E3/uL
ALANINE AMINOTRANSFERASE [3]: 57.33 u/L
ALBUMIN [3]: 4.33 G/DL
ALKALINE PHOSPHATASE [3]: 344.67 u/L
ASPARTATE AMINOTRANSFERASE [3]: 83 u/L
BLOOD UREA NITROGEN [3]: 16 mg/dL
CARBON DIOXIDE [3]: 29 mmol/L
CHLORIDE [3]: 102.33 MEQ/L
CHOLESTEROL [3]: 74.33 mg/dL
CREATINE PHOSPHOKINASE [3]: 180 u/L
CREATININE [3]: 0.21 mg/dL
GLUCOSE [3]: 145.33 mg/dL
LACTATE DEHYDROGENASE [3]: 123 u/L
LIPASE [3]: 8.33 u/L
PHOSPHORUS [3]: 13.03 mg/dL
POTASSIUM [3]: 6.66 MEQ/L
SODIUM [3]: 147.17 MEQ/L
TOTAL BILIRUBIN [3]: 0.17 mg/dL
TOTAL PROTEIN [3]: 6.53 G/DL
URIC ACID [3]: 1.33 mg/dL
